In patent publication US20130108563A1, “COMPOSITIONS COMPRISING AT LEAST ONE AQUEOUS PHASE AND AT LEAST ONE FATTY PHASE WHICH COMPRISES AVERMECTIN COMPOUNDS” (Galderma S.A., priority 2006, published 2013):

What was measured:
[1] = Maximum solubility of ivermectin in oily-phase excipients; type: physicochemical; details: T1 hour, ambient temperature
Procedure: (§1) Maximum solubility of ivermectin at T1 hour at ambient temperature (AT) in various oily-phase excipients and 1 month stability at AT and T40° C.

[2] = 1-month stability of ivermectin in oily-phase excipients; type: physicochemical
Procedure: as §1

ivermectin
Maximum solubility of ivermectin % (w/w) ([1]; in C12-C15 alkyl benzoate): 1.6 % (w/w)
Maximum solubility of ivermectin % (w/w) ([1]; in Diisopropyl adipate): 10.4 % (w/w)
Maximum solubility of ivermectin % (w/w) ([1]; in Guerbet alcohol): 2.5 % (w/w)
Maximum solubility of ivermectin % (w/w) ([1]; in PPG 15 stearyl ether): 3.3 % (w/w)
1-month stability at 40° C. ([2]; in Diisopropyl adipate): Stable
1-month stability at AT ([2]; in Diisopropyl adipate): Stable
1-month stability at 40° C. ([2]; in PPG 15 stearyl ether): Stable
1-month stability at AT ([2]; in PPG 15 stearyl ether): Stable
